Data as given in US8609173B2, “Compositions comprising sweetness enhancers and methods of making them” (Senomyx Inc., priority 2008, dated 2013).
Values after ≈ are worked out from the molar mass of the structure shown.

Experiments:
[1] = Preparation of liquid solutions in food grade solvents (dissolution trials, Table 3); assay type: physicochemical; settings: for solubility rate: propylene glycol
Protocol: Liquid compositions of 3-(4-amino-2,2-dioxide-1H-benzo[c][1,2,6]thiadiazin-5-yloxy)-2′,2′-dimethyl-N-propylpropanamide were prepared using a variety of different solvents (Table 3). It was discovered by increasing the pH of the solution with alkaline substance, such as alkali metal salt, one can increase the concentration level of 3-(4-amino-2,2-dioxide-1H-benzo[c][1,2,6]thiadiazin-5-yloxy)-2′,2′-dimethyl-N-propylpropanamide in solutions. Examples of suitable alkali metal salt include, but are not limited to, sodium bicarbonate, sodium carbonate, sodium hydroxide, and the like. In propylene glycol, sodium bicarbonate will raise pH from 7.8 to 8.5; the solubility rate of 3-(4-amino-2,2-dioxide-1H-benzo[c][1,2,6]thiadiazin-5-yloxy)-2′,2′-dimethyl-N-propylpropanamide will be increased from 0.5% to 1.0%.
• 1. Weigh a desired amount of compound and sodium bicarbonate. • 2. Calculate the volume of food grade solvent(s) (water, ethyl alcohol, isopropyl alcohol, butylenes glycol, propylene glycol, triacetin, glycerol, vegetable oils (soy, corn, peanut, persic, cottonseed, sesame), olive oil, fractionated coconut oil, neobee, tributyrin, mono and diglycerides, ethyl lactate, ethyl levulinate, butyl stearate, triethyl citrate, diethyl succinate, diethyl malonate, acetic acid, lactic acid, phosphoric acid, benzyl alcohol, tetrahydrofurfural alcohol, D-limonene, γ-valerolactone, butyrolactone, polyethylene glycol sorbitan monostearate (Tween®), etc. to add to the dry, weighed out compound to make a concentration of 1,000-50,000 ppm (0.1-5%). • 3. Pre heat the appropriate amount of solvent to 100 to 200° F. while stirring at 1,100 rpm on a hot plate using a stir bar. • 4. Add pre-weighed compound to heated solvent (when temperature reaches 100 to 200° F.). • 5. Continue heating solvent and inspect to insure complete dissolution, return to the hot plate if necessary. Preparation Procedure for Water as a Solvent:
Preparation Procedure of the Liquid Diluted Form (without Heat): • 1. Weigh desire amount of compound. • 2. Calculate the volume of food grade solvent(s) (water, ethanol, propylene glycol, triacetin, glycerol, neobee, DI water, phosphoric acid, lactic acid, olive oil) to add to the dry, weighed out compound to make a concentration of 1,000-50,000 ppm (0.1-5%). • 3. Stir solvent at 1,100 rpm on a hot plate using a stir bar. • 4. Add pre-weighed compound to solvent. • 5. Continue stirring and inspect to insure complete dissolution, return to the hot plate if necessary.

Panelists [2] = assay: Paired comparison taste test, flavored water; assay type: in vivo, Human
Protocol: Two sweetened water solutions were prepared and compared: Flavored Water with 9% Sucrose vs. Flavored Water with 6% Sucrose+2.3 ppm (6.49 μM) of 5-(neopentyloxy)-1H-benzo[c][1,2,6]thiadiazin-4-amino-2,2-dioxide.
Mixing procedures: Dissolve acid into the water using a Lightnin® blender, mix for 5 minutes. Add sugar and continue to mix until dissolved. Add flavors last. Dissolve Compound A into a 0.50% propylene glycol mixture, add last and mix for another 5 minutes. Procedure:
(§1) Panelists evaluated two sweetened water solutions in a paired comparison taste test procedure and were instructed to select the sweeter of the two samples. They perform a total of three paired comparison tests each containing the following samples: Flavored Water with 9% Sucrose vs. Flavored Water with 6% Sucrose+2.3 ppm (6.49 μM) 5-(neopentyloxy)-1H-benzo[c][1,2,6]thiadiazin-4-amino-2,2-dioxide.
Two sweetened water solutions were prepared and compared: Flavored Water with 9% Sucrose vs. Flavored Water with 6% Sucrose+2.44 ppm (6.49 μM) of 3-(4-amino-2,2-dioxide-1H-benzo[c][1,2,6]thiadiazin-5-yloxy)-2′,2′-dimethyl-N-propylpropanamide.
as §1, with “Sucrose+2.44” for “Sucrose+2.3”, “3-(4-amino-2,2-dioxide-1H-benzo[c][1,2,6]thiadiazin-5-yloxy)-2′,2′-dimethyl-N-propylpropanamide.” for “5-(neopentyloxy)-1H-benzo[c][1,2,6]thiadiazin-4-amino-2,2-dioxide.”

[3] = Solubility in buffers and food grade solvents (Table 14); assay type: physicochemical
Protocol: Solubility of 3-(4-amino-2,2-dioxide-1H-benzo[c][1,2,6]thiadiazin-5-yloxy)-2′,2′-dimethyl-N-propylpropanamide
Various solutions of 3-(4-amino-2,2-dioxide-1H-benzo[c][1,2,6]thiadiazin-5-yloxy)-2′,2′-dimethyl-N-propylpropanamide 3-(4-amino-2,2-dioxide-1H-benzo[c][1,2,6]thiadiazin-5-yloxy)-2′,2′-dimethyl-N-propylpropanamide were prepared as indicated below.

Panelists [4] = assay: Paired comparison taste test, cola composition; assay type: in vivo, Human; settings: for Sweetness comparison (conclusion): p>0.10; for Sample selected as sweeter by panelists, Total: vs Cola with 100% Sucrose, n = 39
Protocol: Cola compositions were prepared using the following ingredients and evaluated for sweetness and/or lingering taste.
The cola emulsion, above, contains the ingredients below:
Panelists evaluated two solutions in a paired comparison taste test procedure and were instructed to select the sweeter of the two samples.

**Q.** With `CCCNC(=O)C(C)(C)COc1cccc2c1C(N)=NS(=O)(=O)N2` [3-(4-amino-2,2-dioxide-1H-benzo[c][1,2,6]thiadiazin-5-yloxy)-2′,2′-dimethyl-N-propylpropanamide] as the molecule, how does the “Results (dissolution)” value ([1]; Ethanol, 1.0%, Ambient/over 30 minutes) read?
**A.** Its value is “Did not go into solution”.

**Q.** What about the “Results (dissolution)” value ([1]; Glycerol, 0.1%, Ambient/over 30 minutes) of the same molecule?
**A.** Its value is “Did not go into solution”.

**Q.** And the “Results (dissolution)” value ([1]; Lactic Acid, 1.0%, Ambient/over 30 minutes)?
**A.** Its value is “Did not go into solution”.

**Q.** And the “Results (dissolution)” value ([1]; Neobee, 0.1%, 185° F./over 30 minutes)?
**A.** The value was “Did not go into solution”.

**Q.** What about the “Results (dissolution)” value ([1]; Neobee, 0.1%, Ambient/over 30 minutes) of the same molecule?
**A.** Its value is “Did not go into solution”.

**Q.** And the “Results (dissolution)” value ([1]; Olive Oil (Star Original), 0.1%, 150° F./over 30 minutes)?
**A.** Its value is “Did not go into solution”.

**Q.** What about the “Results (dissolution)” value ([1]; Olive Oil (Star Original), 0.1%, Ambient/over 30 minutes) of the same molecule?
**A.** Its value is “Did not go into solution”.

**Q.** And the “Results (dissolution)” value ([1]; Phosphoric acid, 0.1%, Ambient/over 30 minutes)?
**A.** Its value is “Did not go into solution”.

**Q.** And the “Results (dissolution)” value ([1]; Propylene Glycol, 0.3%, Ambient/over 30 minutes)?
**A.** Its value is “Did not go into solution”.

**Q.** And the “Results (dissolution)” value ([1]; Propylene Glycol, 0.5%, Ambient/over 30 minutes)?
**A.** Its value is “Did not go into solution”.

**Q.** And the “Results (dissolution)” value ([1]; Propylene Glycol, 1.0%, Ambient/over 30 minutes)?
**A.** The value was “Did not go into solution”.

**Q.** What about the “Results (dissolution)” value ([1]; Triacetin, 0.1%, Ambient/over 30 minutes) of the same molecule?
**A.** Its value is “Did not go into solution”.

**Q.** What about the concentration obtained ([1]; in ethanol) of the same molecule?
**A.** Its concentration obtained is “about 0.1 wt. %”.

**Q.** And the concentration readily obtained ([1]; in propylene glycol)?
**A.** The concentration readily obtained was no more than 0.5%.

**Q.** What about the concentration obtained ([1]; in water) of the same molecule?
**A.** The concentration obtained was 10 ppm.

**Q.** And the solubility rate ([1]; pH 7.8, before sodium bicarbonate)?
**A.** Its solubility rate is 0.5%.

**Q.** And the solubility rate ([1]; sodium bicarbonate raises pH to 8.5)?
**A.** Its solubility rate is 1.0%.

**Q.** What about the “Sample selected as sweeter by panelists, Total” value (“Sample selected as sweeter” below) (Panelists [2]; Flavored Water with 6% Sucrose + 2.44 ppm (6.49 μM) compound chosen, vs 9% Sucrose, n = 42) of the same molecule?
**A.** The value was 20.

**Q.** And the “Sweetness comparison (conclusion)” value (Panelists [2]; Flavored Water with 6% Sucrose + 2.44 ppm (6.49 μM) compound vs 9% Sucrose, p>0.10)?
**A.** The value was “not significantly different in sweetness”.

**Q.** And the “Solubility (ppm)” value ([3]; Citric Acid Buffer, pH 2.8)?
**A.** The value was 50 ppm.

**Q.** What about the “Solubility (ppm)” value ([3]; Citric Acid Buffer, pH 4.0) of the same molecule?
**A.** Its value is 50 ppm.

**Q.** And the “Solubility (ppm)” value ([3]; Ethanol)?
**A.** The value was 3757 ppm.

**Q.** What about the “Solubility (ppm)” value ([3]; Glycerol) of the same molecule?
**A.** Its value is 2800 ppm.

**Q.** And the “Solubility (ppm)” value ([3]; Phosphate Buffer, pH 7.1)?
**A.** Its value is 602 ppm.

**Q.** And the “Solubility (ppm)” value ([3]; Propylene Glycol (PG))?
**A.** The value was 6096 ppm.

**Q.** What about the “Solubility (ppm)” value ([3]; Triacetin) of the same molecule?
**A.** Its value is 567 ppm.

**Q.** And the solubility ([3]; aqueous buffer, Citric Acid Buffer, pH 4.0)?
**A.** Its solubility is 140 µM (≈ 49.6 µg/mL).

**Q.** What about the “aqueous solubility (conclusion)” value ([3]; aqueous buffers pH 2.8-7.1) of the same molecule?
**A.** Its value is “pH dependent, and lower solubility was found at low pH”.

**Q.** What about the solubility ([3]; citric acid buffer, pH 2.8, aqueous buffer) of the same molecule?
**A.** Its solubility is 140 µM (≈ 49.6 µg/mL).

**Q.** And the solubility ([3]; ethanol, organic solvent or mixture)?
**A.** The solubility was 10600 µM (≈ 3760 µg/mL).

**Q.** And the solubility ([3]; glycerol, organic solvent or mixture)?
**A.** The solubility was 7900 µM (≈ 2800 µg/mL).

**Q.** And the solubility ([3]; organic solvent or mixture, Propylene Glycol (PG))?
**A.** The solubility was 17200 µM (≈ 6100 µg/mL).

**Q.** And the solubility ([3]; phosphate buffer, pH 7.1, aqueous buffer)?
**A.** The solubility was 1700 µM (≈ 603 µg/mL).

**Q.** And the solubility ([3]; triacetin, organic solvent or mixture)?
**A.** The solubility was 1600 µM (≈ 567 µg/mL).

**Q.** And the “Sweetness comparison (conclusion)” value (Panelists [4]; 60% sucrose cola + 3 ppm (8.47 μM) compound vs 100% sucrose cola)?
**A.** The value was “no significant difference in sweetness”.

**Q.** What about the “Sweetness comparison (conclusion)” value (Panelists [4]; 66% sucrose cola + 3.19 ppm (8.47 μM) compound vs 100% sucrose cola) of the same molecule?
**A.** The value was “no significant difference in sweetness”.

**Q.** And the “Sample selected as sweeter” value (Panelists [4]; Cola with 60% Sucrose + 3 ppm (8.47 μM) compound chosen)?
**A.** The value was 18.

**Q.** And the “Sample selected as sweeter” value (Panelists [4]; Cola with 66% Sucrose + 3.19 ppm (8.47 μM) compound chosen)?
**A.** The value was 22.

**Q.** And the “Sweetness comparison (statement)” value (Panelists [4]; cola with reduced sucrose + 3 ppm or 3.19 ppm compound vs 100% sucrose cola)?
**A.** Its value is “approximately the same sweetness”.
